From PubChem BioAssay AID334 (DTP/NCI, 2004)
Several values for one entry are separate records, joined by “and”; a condition that tells them apart may be missing. Equal values may be shown once. Inconclusive results and toxic doses are left out. How the source made its calls: active means survival T/C of 150% or more; inactive means T/C below 125% in these data.

Test system: CD2F1 mice, intracerebral P388 leukemia, median survival T/C%
Experiment: NCI In Vivo Anticancer Drug Screen. Data for tumor model P388 Leukemia (intracerebral) in CD2F1 (CDF1) mice
Conditions: endpoint: median survival time, higher = longer survival
Method: The antitumor activity of compounds was measured in mice bearing transplantable tumors. Survival or tumor size were measured and the results are expressed as the measurement made in the treated group (T) divided by the measurement made in the vehicle treated control group (C). The tumor model used in this assay is P388 Leukemia (intracerebral) in CD2F1 (CDF1) mice

[1] = dose: 12.5 mg/kg/injection, schedule: Q01DX009 (ip), vehicle: saline with Tween-80
[2] = dose: 25.0 mg/kg/injection, schedule: Q01DX009 (ip), vehicle: saline with Tween-80
[3] = dose: 50.0 mg/kg/injection, schedule: Q01DX009 (ip), vehicle: saline with Tween-80
[4] = dose: 100.0 mg/kg/injection, schedule: Q01DX009 (ip), vehicle: saline with Tween-80
[5] = dose: 200.0 mg/kg/injection, schedule: Q01DX009 (ip), vehicle: saline with Tween-80

Measured: T/C

O=C1C(=O)c2ccccc2C(O)=C1CC=C(Cl)Cl
inactive: dose: 10.0 mg/kg/injection, schedule: Q01DX005 (ip), vehicle: Klucel (hydroxypropylcellulose) (HPC) 102 % of control and 109 % of control | dose: 20.0 mg/kg/injection, schedule: Q01DX005 (ip), vehicle: Klucel (hydroxypropylcellulose) (HPC) 96 % of control and 98 % of control | dose: 40.0 mg/kg/injection, schedule: Q01DX005 (ip), vehicle: Klucel (hydroxypropylcellulose) (HPC) 104 % of control and 105 % of control | dose: 80.0 mg/kg/injection, schedule: Q01DX005 (ip), vehicle: Klucel (hydroxypropylcellulose) (HPC) 100 % of control

CN(CO)c1nc(N(C)CO)nc(N(C)CO)n1
inactive: dose: 3.12 mg/kg/injection, schedule: Q01DX009 (ip), vehicle: saline with Tween-80 98 % of control | dose: 6.25 mg/kg/injection, schedule: Q01DX009 (ip), vehicle: saline with Tween-80 106 % of control | [1] 100 % of control and 101 % of control | [2] 116 % of control and 104 % of control | dose: 50.0 mg/kg/injection, schedule: Q01DX009 (ip), vehicle: Klucel (hydroxypropylcellulose) (HPC) 115 % of control and 93 % of control | [3] 103 % of control and 106 % of control | dose: 100.0 mg/kg/injection, schedule: Q01DX009 (ip), vehicle: Klucel (hydroxypropylcellulose) (HPC) 121 % of control and 112 % of control

CC1(C)N=C(N)N=C(N)N1c1ccc(OCCOc2ccc(S(=O)(=O)F)cc2)c(Cl)c1
inactive: dose: 12.5 mg/kg/injection, schedule: Q04DX003 (ip), vehicle: saline 116 % of control | dose: 25.0 mg/kg/injection, schedule: Q04DX003 (ip), vehicle: saline 100 % of control | dose: 50.0 mg/kg/injection, schedule: Q04DX003 (ip), vehicle: saline 94 % of control

Cc1cn(C2CC(O)C(CO)O2)c(=O)[nH]c1=O (configuration not stated)
inactive: [4] 98 % of control and 104 % of control | dose: 100.0 mg/kg/injection, schedule: Q01DX009 (ip), vehicle: saline 93 % of control and 102 % of control | [5] 108 % of control and 109 % of control | dose: 200.0 mg/kg/injection, schedule: Q01DX009 (ip), vehicle: saline 97 % of control and 109 % of control | dose: 400.0 mg/kg/injection, schedule: Q01DX009 (ip), vehicle: saline with Tween-80 101 % of control and 109 % of control | dose: 400.0 mg/kg/injection, schedule: Q01DX009 (ip), vehicle: saline 94 % of control and 111 % of control | dose: 800.0 mg/kg/injection, schedule: Q01DX009 (ip), vehicle: saline with Tween-80 114 % of control and 111 % of control | dose: 800.0 mg/kg/injection, schedule: Q01DX009 (ip), vehicle: saline 104 % of control and 105 % of control | dose: 1600.0 mg/kg/injection, schedule: Q01DX009 (ip), vehicle: saline with Tween-80 93 % of control and 101 % of control

NC(C/[N+]([O-])=N/O)C(=O)O (configuration not stated)
inactive: dose: 7.02 mg/kg/injection, schedule: Q01DX009 (ip), vehicle: saline with Tween-80 90 % of control | dose: 7.02 mg/kg/injection, schedule: Q01DX009 (ip), vehicle: saline 110 % of control | dose: 14.06 mg/kg/injection, schedule: Q01DX009 (ip), vehicle: saline with Tween-80 98 % of control | dose: 14.06 mg/kg/injection, schedule: Q01DX009 (ip), vehicle: saline 99 % of control | dose: 28.12 mg/kg/injection, schedule: Q01DX009 (ip), vehicle: saline with Tween-80 95 % of control | dose: 28.12 mg/kg/injection, schedule: Q01DX009 (ip), vehicle: saline 108 % of control | dose: 56.25 mg/kg/injection, schedule: Q01DX009 (ip), vehicle: saline with Tween-80 106 % of control | dose: 56.25 mg/kg/injection, schedule: Q01DX009 (ip), vehicle: saline 108 % of control and 112 % of control | dose: 112.5 mg/kg/injection, schedule: Q01DX009 (ip), vehicle: saline with Tween-80 96 % of control

COc1cc(NC(=O)CN(CCCl)CCCl)cc(OC)c1OC
inactive: [1] 113 % of control and 102 % of control | [2] 104 % of control and 107 % of control | [3] 114 % of control and 118 % of control | [4] 114 % of control | [5] 87 % of control
